Laboratory results taken from the SangsterLogP compilation.

Assay: method code SF-HPLC, from PMID: 2608704
Details: pH 1.0
In the case of `O=C(O)CSC1=NS(=O)(=O)c2cc(Cl)ccc2N1`, the logD is reported as 0.72. Molecule `O=C(O)CSC1=NS(=O)(=O)c2cc(Cl)c(Cl)cc2N1` has a logD of 1.1. `Cc1ccc2c(c1)NC(SCCC(=O)O)=NS2(=O)=O` showed a logD of 1.16. `O=C(O)CCC1=NS(=O)(=O)c2cc(Cl)c(Cl)cc2N1` showed a logD of 1.5. Molecule `COc1ccc2c(c1)NC(SCCC(=O)O)=NS2(=O)=O` has a logD of 0.96. `O=C(O)CCSC1=NS(=O)(=O)c2ccc(C(F)(F)F)cc2N1` gave a logD of 1.96. With `O=C(O)CCSC1=NS(=O)(=O)c2ccc(Cl)cc2N1` the logD was 1.6. In the case of `O=C(O)CSC1=NS(=O)(=O)c2ccccc2N1`, the logD is reported as 0.18. Molecule `O=C(O)CCSC1=NS(=O)(=O)c2ccccc2N1` has a logD of 0.66. Molecule `O=C(O)CCSC1=NS(=O)(=O)c2cc(Br)cc(Br)c2N1` has a logD of 2.04. Work on `O=C(O)CCSC1=NS(=O)(=O)c2cc(Cl)c(Cl)cc2N1` yielded a logD of 1.81. `O=C(O)CCSC1=NS(=O)(=O)c2cc(Br)ccc2N1` showed a logD of 1.77. For `O=C(O)CSC1=NS(=O)(=O)c2cc(Br)cc(Br)c2N1`, the logD was 1.16. Molecule `O=C(O)CSC1=NS(=O)(=O)c2cc(Cl)cc(Cl)c2N1` has a logD of 1.09. `O=C(O)CCC1=NS(=O)(=O)c2cc(Br)cc(Br)c2N1` showed a logD of 1.35. Work on `COc1ccc2c(c1)NC(SCC(=O)O)=NS2(=O)=O` yielded a logD of 0.37. Work on `Cc1ccc2c(c1)NC(SCC(=O)O)=NS2(=O)=O` yielded a logD of 0.7. Work on `O=C(O)CSC1=NS(=O)(=O)c2ccc(C(F)(F)F)cc2N1` yielded a logD of 1.62. For `O=C(O)CCCC1=NS(=O)(=O)c2cc(Cl)cc(Cl)c2N1`, the logD was 1.22. `O=C(O)CSC1=NS(=O)(=O)c2cc(Br)ccc2N1` showed a logD of 0.92. Work on `O=C(O)CCCC1=NS(=O)(=O)c2cc(Br)cc(Br)c2N1` yielded a logD of 1.51. In the case of `O=C(O)CSC1=NS(=O)(=O)c2ccc(Cl)cc2N1`, the logD is reported as 0.82. In the case of `O=C(O)CCC1=NS(=O)(=O)c2cc(Cl)cc(Cl)c2N1`, the logD is reported as 1.04. With `O=C(O)CCSC1=NS(=O)(=O)c2cc(Cl)ccc2N1` the logD was 1.43.
